# Reference: patent US12083114B2, “Inhibitors of SARM1 in combination with neuro-protective agents” (Disarm Therapeutics, Inc., priority 2018, dated 2024)
# Test system: DRG axons
# Test: Axon degeneration assay: SARM1 inhibitor with DLK inhibitor, mouse DRG drop culture, manual axotomy
# Format: cell-based
# Details: 16 hours post-axotomy
# Procedure: Mouse dorsal root ganglion neurons (DRGs) were dissected out of E12.5 CD1 mice (50 ganglia per embryo) and incubated with 0.5% Trypsin solution containing 0.02% EDTA (Gibco) at 37° C. for 15 min. The cells were then triturated by gentle pipetting and washed 3 times with DRG growth medium (Neurobasal medium (Gibco) containing 2% B27 (Invitrogen), 100 ng/ml 2.5S NGF (Harland Bioproducts), […] 5-fluoro-2′ deoxyuridine (Sigma), penicillin, and streptomycin). Cells were suspended in the DRG growth medium. DRG drop cultures were created by spotting 5000 cells/well into the center of each well of a 96-well tissue culture plate coated with poly-D-Lysine (0.1 mg/ml; Sigma) and laminin ([…]; Invitrogen). Cells were allowed to adhere to the plates in a humidified tissue culture incubator (5% CO2) for 15 min and then DRG growth medium was gently added ([…] well). DRG neurons were maintained in neurobasal medium supplemented with L-glutamine (Invitrogen), 2% (vol/vol) B27 (Invitrogen), 50 ng/mL NGF (Harlan Laboratories), and 1 μM 5-fluoro-2′deoxyuridine plus 1 μM uridine (Sigma) to induce death of mitotic cells. DRG neurons were then seeded on plates pre-coated with poly-D-lysine and laminin.
# 2 hours prior to axotomy, DRG cultures were treated with SARM1 inhibitors, in the continued presence of the DLK inhibitor. […] Isoquinoline SARM1 inhibitors tested included I-26 and I-86, while isothiazole SARM1 inhibitors tested included II-6 and II-32. The SARM1 inhibitors were tested using concentrations ranging from 0.1 to 30 μM.
# A manual axotomy was performed at time 0 by transecting the axons of the DRG neurons with a blade. After the axotomy, DRG cultures remained exposed to the SARM1 inhibitor alone, DLK inhibitor alone, or the combination of SARM1 inhibitor and DLK inhibitor. At 16 hours, DRG cultures were fixed in a buffered solution containing 1% PFA and sucrose and stored at 4° C. prior to imaging. Bright-field images of DRG axons and cell bodies were collected using the 20× water immersion lens of a Phenix automated confocal microscope (PerkinElmer) and quantitation of axonal damage was performed using in-house developed scripts (Acapella, PerkinElmer). The effect of DLK inhibitor alone in protecting distal axons from fragmentation was determined at concentrations of 100 nM and 300 nM. The effect of combining the DLK inhibitor with varying concentrations of a SARM1 inhibitor was compared to the individual protective effects of either 100 nM or 300 nM of DLK inhibitor alone or an equivalent concentration of a SARM1 inhibitor alone.
# [1] = SARM1 inhibitor alone, 1.1 μM, FIG. 1B/2B
structure (smiles),measurement,setting,value
"N#Cc1ccnc(Nc2cc(C3CCN(C4COC4)CC3)cc(N3CCC(F)(F)C3)n2)c1 [DLK inhibitor, 2-((6-(3,3-difluoropyrrolidin-1-yl)-4-(1-(oxetan-3-yl)piperidin-4-yl)pyridin-2-yl)amino)isonicotinonitrile, reference compound]",axonal protection (degeneration index of DRG axons),100 nM DLK inhibitor alone,no axonal protection
same,axonal protection (degeneration index of DRG axons),300 nM DLK inhibitor alone,modest but statistically significant level of axonal protection
Ic1cccc2cnccc12 [I-26],axonal protection (degeneration index of DRG axons),[1],modest level of protection
same,axonal protection (degeneration index of DRG axons),"SARM1 inhibitor alone, 1.1, 3.3, 10 or 30 μM (all tested concentrations), FIG. 1A",significant axonal protection over all tested concentrations
COc1cc(Br)c2ccncc2c1 [I-86],axonal protection (degeneration index of DRG axons),[1],modest level of axonal protection
same,axonal protection (degeneration index of DRG axons),"SARM1 inhibitor alone, 1.1 μM, FIG. 2A","a small, but statistically significant amount of axonal protection"
N#Cc1c(O)nsc1Nc1ccccc1C(F)(F)F [II-6],axonal protection (degeneration index of DRG axons),"SARM1 inhibitor alone, 3.3 μM, FIG. 3B",modest level of protection
same,axonal protection (degeneration index of DRG axons),"SARM1 inhibitor alone, 1.1 or 3.3 μM, FIG. 3A","modest, but statistically significant axonal protection"
COCCn1sc(Nc2ccccc2C(F)(F)F)c(C#N)c1=O [II-32],axonal protection (degeneration index of DRG axons),"SARM1 inhibitor alone, 0.11, 0.33 or 1.1 μM, FIG. 4A",modest but not statistically significant axonal protection
same,axonal protection (degeneration index of DRG axons),"SARM1 inhibitor alone, 0.11, 0.33 or 1.1 μM, FIG. 4B",only slight and not statistically significant protection
